The target of one assay is T1, Human recombinant renin (Homo sapiens, UniProt P00797).
T1 construct: purchased Proteos
T1 sequence (P00797 67-406): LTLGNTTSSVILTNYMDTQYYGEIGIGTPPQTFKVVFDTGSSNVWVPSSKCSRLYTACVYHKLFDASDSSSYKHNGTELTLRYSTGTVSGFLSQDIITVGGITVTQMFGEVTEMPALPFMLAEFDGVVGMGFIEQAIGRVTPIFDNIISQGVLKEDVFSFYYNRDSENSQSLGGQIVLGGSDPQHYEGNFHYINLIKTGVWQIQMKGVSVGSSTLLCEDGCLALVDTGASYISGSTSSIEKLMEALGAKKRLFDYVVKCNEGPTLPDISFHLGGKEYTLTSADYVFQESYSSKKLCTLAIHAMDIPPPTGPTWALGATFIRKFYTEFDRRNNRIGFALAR
The assay can be described thus: Inhibition of human recombinant renin (QFRET, buffer). It counts as biochemical. The note with it: buffer: 50 mM MOPS pH 7.4, 100 mM NaCl, 0.002% Tween 20; 37° C., 3 hours. Here is the method: Inhibition of Human Recombinant Renin
Human recombinant renin (Proteos) in 50 mM MOPS pH 7.4, 100 mM NaCl, 0.002% Tween 20 at a final concentration of […] is incubated with inhibitors from a 50 fold concentrated DMSO solution and 6 μM of an internally-quenched fluorescent peptide: DNP-[…]D,L-Amp (SEQ ID NO: 1); Paschalidou K. et al., Biochem J., 2004, 382, 1031). The reactions take place in a Costar 384 well black plate (#3573) at 37° C. for 3 hours. Fluorescence is measured at times 0 and 3 hours with a SpectraMax Gemini EM reader set at an excitation wavelength of 328 nm and at an emission wavelength of 388 nm. Background fluorescence at t=0 is subtracted from the measurement at t=3 hours. Inhibitory activity of the compounds is expressed as IC50.

In assay [1] the target is T2, recombinant renin in human plasma (Homo sapiens, UniProt P00797).
T2 construct: purchased Proteos
T2 sequence (P00797 67-406): T1 sequence (P00797 67-406)
The assay can be described thus: Inhibition of renin in human plasma (QFRET, plasma). It counts as biochemical. Particulars: human EDTA plasma with 1 nM recombinant renin added; 37° C., 1 hour. Here is the method: Inhibition of Renin in Human Plasma
Human EDTA-collected plasma is rapidly thawed in warm water and centrifuged at 2900 g for 15 minutes at 4° C. The supernatant is collected and recombinant renin (Proteos) is added at a final concentration of 1 nM. The plasma is transferred to a Costar black 384 well plate (#3573). Renin inhibitors are added from a 17.5 fold concentrated DMSO solution and pre-incubated at 37° C. for 10 minutes. The internally-quench fluorescent peptide QXL520™-[…](5-FAM) (Anaspec), SEQ ID NO: 2, is diluted in 3M Tris pH 7.2, 200 mM EDTA and added to the plasma. The final concentrations are: 6 μM substrate, 342 mM Tris, 23 mM EDTA. The plate is incubated at 37° C. for 1 hour. The plate is read in a SpectraMax Gemini EM reader set at an excitation wavelength of 490 nm and an emission wavelength of 520 nm at times 0 and 1 hour. Background fluorescence at t=0 is subtracted from the measurement at t=1 hour. Inhibitory activity of the compounds is expressed as IC50.

The structures appear in SMILES notation. pIC50: −log10 of the molar value. A value given as a limit tells only on which side of the number the result lay.

The term pIC50 denotes the negative decadic logarithm of the IC50, by convention in mol/L. As to `COCCCc1ccccc1-c1ccc([C@H]2CNCC[C@@H]2c2ccccc2)c(C)c1` (racemic) [Structure 1], the pIC50 at Human recombinant renin was 6.21; in assay [1], < 5.00. Consider `COCCCc1ccccc1-c1ccc([C@H]2CNCC[C@@H]2c2cccnc2)c(C)c1` (racemic) [Structure 2], for which the pIC50 at Human recombinant renin is 7.74; in assay [1] it was 6.51. In the case of `CC(=O)NCCc1ccccc1-c1ccc([C@H]2CNCC[C@@H]2c2cccnc2)c(C)c1` (racemic) [Structure 3], the values for the pIC50 (at Human recombinant renin; in assay [1]) were 8.04 and 7.39, respectively.

Turning to `COCCCc1cc(OCCOC)ccc1-c1ccc([C@H]2CNCC[C@@H]2c2cccnc2)c(C)c1` (racemic) [Structure 6], the negative-log IC50 (pIC50) at Human recombinant renin is 6.42; in assay [1] it was 5.74. The like results for `Cc1cc(-c2ccccc2CCCO)ccc1[C@H]1CNCC[C@@H]1c1cc(F)cc(F)c1` (racemic) [Structure 7, (+/−)-trans-3-{4′-[4-(3,5-difluorophenyl)piperidin-3-yl]-3′-methylbiphenyl-2-yl}propan-1-ol] were, in that order, 7.07 and 5.50. As for `COCCCc1ccccc1-c1ccc([C@H]2CNCC[C@@H]2c2cc(F)cc(F)c2)c(C)c1` (racemic) [Structure 8], the figures for the pIC50 (on Human recombinant renin; in assay [1]) were 8.37 and 5.93, respectively. The matching figures for `Cc1cc(-c2ccccc2CCCO)ccc1[C@H]1CNCC[C@@H]1c1cccc2nc[nH]c12` (racemic) [Structure 9]: 6.00 and < 5.02.

For the compound `COCCCc1ccccc1-c1ccc([C@H]2CNCC[C@@H]2c2cccc3nc[nH]c23)c(Cl)c1` (racemic) [Structure 10], the pIC50 at Human recombinant renin is 8.46; in assay [1], 5.69. With `COCCCc1ccccc1-c1ccc([C@H]2CNCC[C@@H]2c2cccnc2)c(Cl)c1` (racemic) [Structure 11], the pIC50 at Human recombinant renin was 8.57; in assay [1], 7.18. Consider `COCCCc1cccc(C)c1-c1ccc([C@H]2CNCC[C@@H]2c2cccnc2)c(C)c1` (racemic) [Structure 12], for which the pIC50 on Human recombinant renin is 8.00; in assay [1] it was 6.82. As for `CC(=O)NCCc1ccccc1-c1ccc([C@H]2CNCC[C@@H]2c2cc(F)cc(F)c2)c(C)c1` (racemic) [Structure 15], the results for the pIC50 (on Human recombinant renin; in assay [1]) were 8.80 and 7.74, respectively. For the compound `CCC(=O)NCCc1ccccc1-c1ccc([C@H]2CNCC[C@@H]2c2cc(F)cc(F)c2)c(C)c1` (racemic) [Structure 18], the pIC50 at Human recombinant renin is 9.19; in assay [1] it was 8.89. For `Cc1cc(-c2ccccc2CCNS(C)(=O)=O)ccc1[C@H]1CNCC[C@@H]1c1cc(F)cc(F)c1` (racemic) [Structure 19], the figures for the pIC50 (on Human recombinant renin; in assay [1]) were 7.15 and 5.74, respectively. For `Cc1cc(-c2ccccc2CCNC(=O)C(F)(F)F)ccc1[C@H]1CNCC[C@@H]1c1cc(F)cc(F)c1` (racemic) [Structure 20], the pIC50 on Human recombinant renin is 9.24; in assay [1], 7.60.

With `Cc1cc(-c2ccccc2CCNC(=O)C(C)C)ccc1[C@H]1CNCC[C@@H]1c1cc(F)cc(F)c1` (racemic) [Structure 21], the pIC50 at Human recombinant renin is 7.85; in assay [1], 5.94. For `Cc1cc(-c2ccccc2CCNC(=O)c2ccccc2)ccc1[C@H]1CNCC[C@@H]1c1cc(F)cc(F)c1` (racemic) [Structure 22], the values for the negative-log IC50 (pIC50) (at Human recombinant renin; in assay [1]) were 7.70 and 5.93, respectively. On to `Cc1cc(-c2ccccc2CCNC(=O)c2ccn(C)n2)ccc1[C@H]1CNCC[C@@H]1c1cc(F)cc(F)c1` (racemic) [Structure 23], for which the pIC50 on Human recombinant renin was 7.59; in assay [1], 7.16. The like results for `Cc1cc(-c2ccccc2CCNC(=O)c2cnn(C)c2)ccc1[C@H]1CNCC[C@@H]1c1cc(F)cc(F)c1` (racemic) [Structure 24] were, in that order, 7.14 and 6.00. Regarding `Cc1cc(-c2ccccc2CCNC(=O)OCc2ccccc2)ccc1[C@H]1CNCC[C@@H]1c1cc(F)cc(F)c1` (racemic) [Structure 25], the pIC50 at Human recombinant renin was 7.74; in assay [1], 5.26. Regarding `Cc1cc(-c2ccccc2CCNC(=O)CO)ccc1[C@H]1CNCC[C@@H]1c1cc(F)cc(F)c1` (racemic) [Structure 26], the pIC50 at Human recombinant renin was 8.82; in assay [1] it was 7.52. Take `Cc1cc(-c2ccccc2CCN)ccc1[C@H]1CNCC[C@@H]1c1cc(F)cc(F)c1` (racemic) [Structure 27]: the pIC50 at Human recombinant renin was 7.09; in assay [1], 5.98.

`COC(=O)NCCc1ccccc1-c1ccc([C@H]2CNCC[C@@H]2c2cc(F)cc(F)c2)c(C)c1` (racemic) [Structure 28]: the pIC50 was 9.25 on Human recombinant renin and 7.60 in assay [1]. Regarding `Cc1cc(-c2cccc3ccc(O)cc23)ccc1[C@H]1CNCC[C@@H]1c1cc(F)cc(F)c1` (racemic) [Structure 29], the pIC50 on Human recombinant renin is 7.03; in assay [1] it was < 4.55. The like results for `COCc1ccc2cccc(-c3ccc([C@H]4CNCC[C@@H]4c4cc(F)cc(F)c4)c(C)c3)c2c1` (racemic) [Structure 30] were, in that order, 7.00 and 4.95. Take `Cc1cc(-c2ccccc2CCNC(=O)C2CC2)ccc1[C@H]1CNCC[C@@H]1c1cc(F)cc(F)c1` (racemic) [Structure 31]: the pIC50 on Human recombinant renin is 8.36; in assay [1], 6.89. Regarding `Cc1cc(-c2ccccc2CCNC(=O)C(F)(F)C(F)(F)F)ccc1[C@H]1CNCC[C@@H]1c1cc(F)cc(F)c1` (racemic) [Structure 32], the pIC50 was 7.64 at Human recombinant renin and 7.12 in assay [1]. Regarding `Cc1cc(-c2ccccc2CCNC(=O)CC(F)(F)F)ccc1[C@H]1CNCC[C@@H]1c1cc(F)cc(F)c1` (racemic) [Structure 33], the values for the pIC50 (at Human recombinant renin; in assay [1]) were 8.68 and 6.92, respectively. On to `Cc1ccccc1OCc1ccccc1-c1ccc([C@H]2CNCC[C@@H]2c2cc(F)cc(F)c2)c(C)c1` (racemic) [Structure 34], for which the results for the pIC50 (at Human recombinant renin; in assay [1]) were 8.12 and 5.30, respectively. Turning to `Cc1cc(-c2ccccc2COc2ccccc2)ccc1[C@H]1CNCC[C@@H]1c1cc(F)cc(F)c1` (racemic) [Structure 35], the figures for the pIC50 (at Human recombinant renin; in assay [1]) were 8.42 and 5.72, respectively. For the compound `Cc1cc(-c2ccccc2COc2cccnc2)ccc1[C@H]1CNCC[C@@H]1c1cc(F)cc(F)c1` (racemic) [Structure 36], the pIC50 was 9.26 on Human recombinant renin and 7.03 in assay [1]. The like results for `Cc1cc(-c2ccccc2OCc2ccccc2)ccc1[C@H]1CNCC[C@@H]1c1cc(F)cc(F)c1` (racemic) [Structure 37] were, in that order, 7.06 and 4.91.

With `Cc1cc(-c2ccccc2OCc2cccnc2)ccc1[C@H]1CNCC[C@@H]1c1cc(F)cc(F)c1` (racemic) [Structure 38], the values for the pIC50 (at Human recombinant renin; in assay [1]) were 6.82 and < 4.55, respectively. The like results for `COCCCc1ccccc1-c1ccc([C@H]2CNCC[C@]2(O)c2cc(F)cc(F)c2)c(C)c1` (racemic) [Structure 39] were, in that order, 8.38 and 6.12. Regarding `COCCCc1ccccc1-c1ccc([C@H]2CNCC[C@]2(O)c2cccnc2)c(C)c1` (racemic) [Structure 40], the pIC50 at Human recombinant renin is 7.33; in assay [1] it was 5.94.

`O[C@]1(c2ccc(F)c(F)c2)CCNC[C@@H]1c1cc(-c2ccc(F)cc2Cl)no1` [Structure 69]: at Human recombinant renin, the pIC50 was 5.60.

The values above are taken from US20120035214A1, “RENIN INHIBITORS” (Merck Canada Inc., priority 2009, published 2012).
